The experiment concerns Pseudomonas aeruginosa strain. The experiment in a line: embedding of 1 ml and 0.1 ml samples of mother solution in PCA medium. Type of experiment: cell-based. To be noted: for bacteria count in embedding: PCA medium 48 hours, strain at 1.9 10^8, bromoform 60 mg/l. The procedure:
In order to test that the antibacterial and/or antifungal action is in fact related to a group of halogenated molecules of low molecular weight, an aqueous solution of 60 mg/l bromoform was prepared and its action compared with that of a permeate of nanofiltration at the threshold of 400 Daltons which therefore only contained micromolecules, in particular halogenated molecules. After embedding 1 ml and 0.1 ml samples in a PCA medium for 48 hours from a mother solution containing the product to be tested and the Pseudomonas aeruginosa strain at a concentration of 1.9 10^8, the results in the following table were obtained.
In this table, and in the following tables, “>>” means that bacteria developed and could not be counted.
Also, the microfiltration permeate was fractionated by subjecting it to ultrafiltration (uF) or nanofiltration (nF), and the antibacterial action on the Pseudomonas strain was measured for each fraction and at different times in accordance with the protocol described below. The following results were obtained:
Other tests were conducted to measure the influence of pH on the extract's activity and its ageing. Acidification was carried out during the so-called acidification stage of the method for obtaining the extract of the invention, using citric acid.

Turning to `BrC(Br)Br` [Bromoform, bromoform], the “bacteria count in embedding” value is, setting by setting: (0.1 ml embedding) “>>”; (1 ml embedding) “>>”. In addition, where the note is “bromoform at 1.5 times the concentration in the extract, permeate on second day after production”, the “action against the Pseudomonas aeruginosa strain” value is listed as “no action”.

The record behind these values is patent US6346252B1, “Method of obtaining an antibacterial and/or antifungal extract from the algae, bonnemaisoniacea” (Algues et Mer (S.A.R.L.), priority 1996, dated 2002).
